The test system of assay [1] is YU2 (CCR5 tropic strain) strain in TZM-bl cells. As to the kind of experiment: Pseudoviral assay (single-round viral infective assay) in TZM-bl cells. The class given is cell-based, HIV. The conditions noted are these: 48 h post-infection, luciferase read-out, BA8 up to 50 μg/ml (approximately 350 nM).
Experimental: Subsequently, we conducted a pseudoviral test using TZM-bl cells.
The anti-HIV activity of BA8, isotype control antibody, and Maraviroc (Sigma-Aldrich) in a single-round viral infective assay against the YU2 (CCR5 tropic strain) strain in TZM-bl cells. At 48 h post-infection, cells were lysed, and relative light units were measured using a Steady-Glo luciferase assay system and GloMax Discover microplate reader (Promega).
The subject of assay [2] is BA8 Fab. Kind of assay: SPR analysis of sulfated, non-sulfated and partially sulfated CCR5 N-terminal peptides with BA8. The class given is binding, rabbit. The settings on record: for kon: SPR Biacore 8K, BA8 Fab immobilized on CM5 chip, PBS 0.005% Tween 20, global fitting; for kon / Kd / koff: partially sulfated peptide as analyte; for Kd / koff / binding of peptide to BA8 in SPR, in words: SPR, BA8 Fab immobilized; for binding of peptide to BA8 in SPR, in words: peptides 2 to 162 nM as analyte (statements of b30 and b31 cover SPR and ITC). The text has this:
To quantitatively evaluate the intermolecular interaction between BA8 and the sulfated N-terminal peptide of CCR5, we prepared a Fab fragment of BA8 as a recombinant protein (Fig. S2, A and B) and conducted kinetic interaction analysis using SPR. The Fab was immobilized on a sensor chip using amine coupling, and the synthesized sulfated and non-sulfated N-terminal peptides of CCR5 were used as the analytes.
(§1) We prepared these partially sulfated peptides and analyzed their interactions with BA8 using SPR and ITC (Fig. 4, B and C, Tables 3 and 4). […] These findings indicate that sulfation at 7Tys is essential for BA8 recognition. […] Thus, the high specificity and affinity of BA8 for the sulfated CCR5 N-terminal peptide likely rely heavily on the sulfation at 7Tys and 8Tys. […] In other words, BA8 recognizes not only sulfation of the N-terminal peptide of CCR5, but it is also selective about the sulfation site.
The bindings of the peptides to Fabs were analyzed using a Biacore 8K instrument (Cytiva). Each Fab was immobilized on the surface of a CM5 sensor chip (Cytiva) by the amine-coupling method according to the manufacturer’s instructions in the condition of pH 5.5. The immobilization level reached to about 3000 Response Unit (RU). PBS containing 0.005% Tween 20 was used as the running buffer. The kinetic data were obtained by injection of increasing concentrations of peptides into the sensor chip. The flow rate of the analyte were set to 30 μl/min. The data were analyzed using BIAevaluation software (Cytiva), and the binding affinity as well as kinetic parameters were calculated by a global fitting of the curves.

For assay [3], the target named is BA8 Fab. Kind of assay: ITC analysis of sulfated, non-sulfated and partially sulfated CCR5 N-terminal peptides with BA8. The class given is binding, rabbit. The conditions noted are these: PBS; for Kd / ΔH: 10 μM BA8 Fab in cell, 100 μM peptide in syringe, 25 °C.
Excerpt: To determine the thermodynamic parameters accompanying the interaction, we performed an ITC analysis (Fig. 2B, Table 2).
as §1
The ITC experiments were performed using a MicroCal PEAQ-ITC (Malvern Panalytical, Malvern, UK). The BA8 Fab fragment antibody, sufficiently dialyzed in PBS, was adjusted to 10 μM for the cells, and the CCR5 N-terminal peptide, dissolved in the dialysate, was adjusted to 100 μM for the syringe. The first injection of 0.5 μl (omitted from the analysis) was followed by 19 injections of 2 μl with 120 s intervals at a constant temperature of 25 °C. The titration syringe was continuously stirred at 750 rpm.
The baselines were smoothly adjusted for the step after each titration saturated and fitted as one set of sites binding in MicroCal PEAQ-ITC Analysis Software (Malvern Panalytical, Malvern, UK).
(In ITC the heat of successive injections is recorded.)

Assay [4] concerns BA8 Fab. Kind of assay: DSF stabilizing effect of peptides on BA8. Set-up: species or system rabbit. The conditions noted are these: BA8 Fab before and after binding of peptide (solution after ITC). Here is the method: To assess the effect of sulfated peptide binding on the thermal stability of BA8, we performed differential scanning fluorimetry (DSF) measurements (Fig. 2C) ([25]). The melting temperature (Tm) of BA8 forming a complex with the sulfated peptide was 75.6 °C, whereas the pre-binding Tm was 70.8 °C.
The stabilization effect of the addition of these partially sulfated peptides on BA8 was evaluated using DSF measurements (Fig. S8).
The DSF thermal stability measurements were performed using a CFX Real-Time PCR System (Bio-Rad). First, 1 μl of 100 × SYPRO Orange stain was diluted with 19 μl of 8.3 μM unbound-BA8 Fab or the solution remaining in the cell after ITC measurement. Next, fluorescence was scanned every minute to obtain melting curves of the solutions as they were heated at 1.0 °C/min. The change in the scanned relative fluorescence unit per unit time was recorded, and the temperature at its peak was considered to be the melting temperature (Tm) ([42]).

The target in assay [5] is endogenous CCR5 expressed on TZM-bl cells (human (endogenous in TZM-bl)) (UniProt P51681). As to the kind of experiment: flow cytometry on cells; transfected HEK293 cells (C, C1, C2, C12) or TZM-bl cells fixed with 2% paraformaldehyde; BA8 IgG detected with goat anti-rabbit IgG Alexa 488; median fluorescence against BA8 concentration fitted with a sigmoid function. On the technique in general: In flow cytometry, cells or beads pass a laser one at a time.
Chain of endogenous CCR5 expressed on TZM-bl cells (human (endogenous in TZM-bl)) (P51681 whole entry): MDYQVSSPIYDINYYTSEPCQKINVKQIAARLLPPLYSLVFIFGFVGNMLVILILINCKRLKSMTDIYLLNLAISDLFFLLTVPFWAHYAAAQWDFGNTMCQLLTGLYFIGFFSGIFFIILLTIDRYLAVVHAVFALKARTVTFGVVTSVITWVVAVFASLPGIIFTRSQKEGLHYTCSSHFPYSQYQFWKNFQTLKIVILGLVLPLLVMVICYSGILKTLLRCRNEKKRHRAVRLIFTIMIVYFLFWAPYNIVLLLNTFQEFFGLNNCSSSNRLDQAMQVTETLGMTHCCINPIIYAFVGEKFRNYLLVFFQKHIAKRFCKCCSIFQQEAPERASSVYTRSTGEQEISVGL

For assay [6], the target named is full-length CCR5-FLAG co-expressed with TPST1 and TPST2 in HEK293 cells (C12 cells), sulfated by TPST2 (UniProt P51681). Described as above.
Chain of full-length CCR5-FLAG co-expressed with TPST1 and TPST2 in HEK293 cells (C12 cells), sulfated by TPST2 (P51681 whole entry): as above
Assay [7] concerns the target full-length CCR5-FLAG co-expressed with TPST2 in HEK293 cells (C2 cells), sulfated by TPST2 (UniProt P51681). The assay is described as above.

Entries after “also recorded” stand apart in the source; their conditions may differ. Where no end group is shown, it is not given here. [ ]: non-standard residue; d: D form. sY = N[C@@H](Cc1ccc(OS(=O)(=O)O)cc1)C(=O)O

In general, Kd refers to the concentration at which binding is half-saturated. What is called koff is the first-order rate constant of dissociation. Usually EC50 stands for the concentration that produces a half-maximal response.

Chain of full-length CCR5-FLAG co-expressed with TPST2 in HEK293 cells (C2 cells), sulfated by TPST2 (P51681 whole entry): as above

On to Maraviroc [reference compound], for which, in assay [1], the “inhibition of HIV infection, in words” value was “inhibited HIV infection; also recorded: concentration-dependent inhibition of viral infection”.
As to “TYS7: partially sulfated CCR5 N-terminal peptide containing 7Tys (PIYDIN[sY]YTSE; UniProt P51681 8-18, looked up, fragment)”, in the assay on BA8 Fab [2], the kon was determined as 228000 mol/L/s; the affinity, expressed as Kd, was 67.8 nM; the koff came to 0.0154 s⁻¹; the “binding of peptide to BA8 in SPR, in words” value (“binding … in SPR, in words” below) was “bound; also recorded: weak binding”. In addition, on BA8 Fab [3], the Kd was determined as 13.4 nM and the ΔH is -14.9 kcal/mol. Moreover, in the assay with BA8 Fab [3] (10 μM BA8 Fab, 100 μM peptide), the ΔG is -10.7 kcal/mol and the “−TΔS” value turned out to be 4.21 kcal/mol. For the same molecule, the “effect of the peptide on the thermal stability (Tm) of BA8, in words” value (shortened to “effect of the peptide”) in the assay on BA8 Fab [4] was “contribute to the stabilization of BA8; also recorded: lower than those of TYS3,7,8”.
As for “TYS3,7: partially sulfated CCR5 N-terminal peptide containing 3Tys and 7Tys (PI[sY]DIN[sY]YTSE; UniProt P51681 8-18, looked up, fragment)”, in the assay on BA8 Fab [2], the kon came to 265000 mol/L/s; binding was put at a Kd of 45 nM; the koff was 0.0119 s⁻¹; the “binding … in SPR, in words” value is listed as “weak binding”. The “binding … in SPR, in words” value in the assay with BA8 Fab [2] (listed as TYS37) is “bound”. Also, at BA8 Fab [3], binding was put at a Kd of 7.65 nM and the ΔH was -15.8 kcal/mol. Further, in the assay on BA8 Fab [3] (10 μM BA8 Fab, 100 μM peptide), the ΔG was -11.1 kcal/mol and the “−TΔS” value is reported as 4.68 kcal/mol. In the assay with BA8 Fab [4], the “effect of the peptide” value is recorded as “lower than those of TYS3,7,8”. The “effect of the peptide” value with BA8 Fab [4] (listed as TYS37) is recorded as “contribute to the stabilization of BA8”.
Turning to “TYS3,8: partially sulfated CCR5 N-terminal peptide containing 3Tys and 8Tys (PI[sY]DINY[sY]TSE; UniProt P51681 8-18, looked up, fragment)”, the “binding … in SPR, in words” value in the assay with BA8 Fab [2] is “did not exhibit binding”; in the assay with BA8 Fab [2] (listed as TYS38), “no binding”. In addition, the “effect of the peptide” value with BA8 Fab [4] is recorded as “did not change the thermal stability of BA8 at all”.
With “TYS3: partially sulfated CCR5 N-terminal peptide containing 3Tys (PI[sY]DINYYTSE; UniProt P51681 8-18, looked up, fragment)”, the “binding … in SPR, in words” value with BA8 Fab [2] is reported as “no binding; also recorded: did not exhibit binding”. In the assay with BA8 Fab [4], the “effect of the peptide” value is given as “did not change the thermal stability of BA8 at all”.
Regarding “sulfated peptide: CCR5 N-terminal peptide Pro8 to Ser18 with sulfated Tyr10, Tyr14, and Tyr15; fully sulfated (PI[sY]DIN[sY][sY]TSE; UniProt P51681 8-18, looked up, fragment)”, the “binding … in SPR, in words” value in the assay on BA8 Fab [2] is given as “high binding affinity in the nanomolar range”. Also, in the assay on BA8 Fab [3] (10 μM BA8 Fab, 100 μM peptide), the “binding of peptide to BA8 in ITC, in words” value was “so high that it could not be accurately measured”.

B1: BA8 full-length IgG (recombinant, rabbit IgG Fc) (antibody, V domains shown)
VH: QSLEESGGGLFKPTDTLTLTCTVSGFSLSSYSIRWVRQAPGNGLEWIGAIGSGGNAYYTSWAKSRSTITRNTNENTVTLKMTSLTVADTATYFCARGGINFGIWGPGTLVTVSS
VL: AAVLTQTPSPVSAAVGSTVTINCQSSQSVYSKNWLSWFQQKPGQPPKQLIYSASTLDSGVPSRFSGSGSGTQFTLTISGVQCDDAATYYCQGTYGDASAFGGGTEVVVK
For the molecule B1, the EC50 came out at 49 nM in assay [5], 3.71 nM in assay [6] and 3.64 nM in assay [7].

For the origin of these results see publication PMC11849073, “Specific recognition mechanism of an antibody to sulfated tyrosine and its potential use in biological research” (The Journal of Biological Chemistry, 2025).
